Key:
NIH 3T3 cells = assay: Staurosporine induction of apoptosis (ethidium bromide/acridine orange double staining); assay type: cell-based; settings: 1 uM in serum-free media, within 24 hours
Method: D. Staurosporine selection. Staurosporine, an alkaloid from Streptomyces sp., is a potent, broad spectrum inhibitor of protein kinases which binds the ATP site. Addition of 1 uM staurosporine in serum-free media to NIH 3T3 cells induced >99% apoptosis within 24 hours, as determined by ethidium bromide/acridine orange double staining as described for the Fas selection.

3T3 cells [1] = assay: Propidium iodide staining of fixed cells to assay for apoptosis (TNF/CXH); assay type: cell-based; settings: expressed in 3T3 cells
Method: Propidium Iodide staining of fixed cells to assay for apoptosis: (Sherwood and Schimke, Methods in Cell Biology, 46:77-87, 1995) 3T3 cells transiently infected with MFGLacZ, Bcl2, or CPP32 were plated and treated with TNF/CXH as described above, and harvested and washed as above. Cells were then resuspended in 70% ethanol in PBS at 4° C. and kept at 4° C. overnight. When ready to FACS, cells were stained with propidium iodide as follows. Cells were spun at 14,000 RPM for 10 seconds and washed once with PBS/BSA. Cells were then resuspended in […] staining solution (PBS with 50 mg/ml RNase A (DNase-free) with 10 mg/ml propidium iodide) and incubated at 37° C for at least 1 hour. Cells were then pelleted and resuspended in PBS/BSA solution containing 10 mg/ml propidium iodide and analyzed by FACS scanning.

CPP32 = molecular target: T1, CPP32 (Mus musculus, UniProt P70677); assay: Enzymatic assay of CPP32 activity (DEVD-pNA cleavage) in extracts of TNF/CXH-stimulated 3T3 cells; assay type: biochemical; settings: cell extracts, 30 min to 4 hours after TNF/CXH; control WIN cells rise at 2 hours
T1 construct: endogenous in cells; host or cells: 3T3 cells (lysate after TNF/cycloheximide stimulation)
T1 sequence (P70677 29-175 limits assumed): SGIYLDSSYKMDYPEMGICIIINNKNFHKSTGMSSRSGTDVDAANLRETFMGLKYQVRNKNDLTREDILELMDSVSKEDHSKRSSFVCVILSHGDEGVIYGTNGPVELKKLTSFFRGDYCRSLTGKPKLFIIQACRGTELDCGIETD
T1 sequence (P70677 176-277 limits assumed): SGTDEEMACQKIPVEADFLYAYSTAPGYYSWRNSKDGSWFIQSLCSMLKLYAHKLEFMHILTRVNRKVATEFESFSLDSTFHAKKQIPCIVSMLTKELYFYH
Method: Enzymatic Assay of CPP32 activity: CPP32 Assay Kit: Clontech CPP32 Colorimetric Assay Kit (Cat. No. K2027-2): 3T3 cells were infected with the vectors described in Part I, section C, and selected in G418 media prior to assay. 6-well plates of 3T3 cells at near confluence were stimulated with TNF/CXH as described above and harvested at 30 min, 1, 2 and 4 hours after stimulation as follows. Cells were trypsinized and collected as described above. After transfering to an eppendorf tube, cells were spun and resuspended in […] chilled Cell Lysis Buffer. Cells were incubated for 10 minutes on ice, then […] of 2× Reaction Buffer containing DTT was added to each tube. 5 ml of the calorimetric conjugated substrate (DEVD-paranitroanilide, 50 mM final concentration) was added to each tube and incubated at 37° C. for 30 minutes. Samples were transferred to a 96 well plate and read on a spectrophotometer at O.D. of 405. […] By 4 hours, cells have begun to die and the activity is decreased. […] In the case of BCL2, it should be due to inhibition of apoptosis upstream of the enzyme. With CPP32 inhibitor peptide, it should be due to direct inhibition of enzymatic activity. These in vitro results are consistent with the results seen in cell death assays described above.

3T3 cells [2] = assay: Apotag / TUNEL assay of apoptosis induced by hTNFa and cycloheximide; assay type: cell-based; settings: expressed in 3T3 cells from an MSCV retroviral promoter; hTNFa 50 ng/ml + cycloheximide 6 hours, harvested at 24 hours
Method: Apotag assay: TUNEL (TdT-mediated dUTP-fluorescein nick end labeling) Boehringer Mannheim kit, catalog no. 168795
3T3 cells transiently infected with either MFGLacZ, BCL2, or […] plasmids were grown to 50% confluence at the time of induction with hTNFa (50 ng/ml media) and cycloheximide ([…] media) for 6 hours. Cells were washed at 6 hours and harvested at 24 hours after induction. Cells were harvested by pooling all media from cells (in order to collect any apoptotic, floating cells) with the washings and trypsinized cells. The cells were spun and washed with PBS containing 1% BSA, transferred to an eppendorf tube and the wash repeated once.
Cells were fixed in 4% paraformaldehyde at room temperature for 30 minutes, washed in PBS/BSA, then resuspended in permeabilisation buffer for 2 minutes on ice. After permeabilisation, cells were washed twice in PBS/BSA and incubated at 37° C. for 1 hour with labeling buffer containing fluoresceinated dUTP, unlabeled nucleotide mixture and terminal deoxynucleotidyl transferase (TdT). Cells were washed twice with PBS/BSA, resuspended in PBS/BSA and transferred to a FACS tube for analysis. Samples were also visualized under the fluorescence microscope.

Jurkat EcoR cells = assay: IgM anti-Fas (CH-11) selection of retrovirus-transduced Jurkat cells; settings: peptide expressed in cells with a retrovirus
Method: A sterile Acrodisc 0.45 micron syringe filter (Gelman Sciences) was attached to the end of a 10 ml sterile syringe and the injection stopper sterilely removed from the syringe barrel. At 48 hours post-transfection, the virus supernatant was removed from the Phoenix cells and added to the syringe barrel. The stopper was replaced and the virus supernatant was ejected dropwise into a clean, sterile conical tube. […] Polybrene was added to each viral supernatant (Sigma; 2.5 mg/ml in ddH20=500×; store at −20° C.) to a final concentration of 5 mg/ml. 4.5×10^6 Jurkat EcoR cells (Jurkat cells stably expressing the ecotropic retrovirus receptor) were pelleted for 1400 rpm for five min and resuspended in 9 mls of the OL-2 library virus supernatant. The cells were distributed in aliquots of 1 ml, or 5×10^5 cells, into the wells of a 24 well plate. 1.5×10^6 Jurkat EcoR cells were similarly treated with 3 mls each of the lacZ viral supernatant and the OL-1 viral supernatant. Each cell plate was wrapped in parafilm, placed in a microplate carrier (DuPont) and centrifuged at 2500 rpm for 90 min at 32° C. in a DuPont/Sorvall RT 6000B table top centrifuge. After centrifugation, the cells were observed under a microscope. […] The parafilm was removed from the plates, which were placed at 32° C. […]

cells = assay: Staurosporin induced apoptosis in cells expressing the peptide with a retrovirus; assay type: cell-based; settings: peptide expressed in cells with a retrovirus
PKCa = PKCa localization by immunohistochemistry after PMA stimulation; assay type: cell-based, Murine

For `CN[C@@H]1C[C@H]2O[C@@](C)([C@@H]1OC)n1c3ccccc3c3c4c(c5c6ccccc6n2c5c31)C(=O)NC4` [staurosporine, Staurosporine], the apoptosis (NIH 3T3 cells) was > 99%.

For “Bcl2: Bcl2 protein expressed from a retroviral vector; known inhibitor of apoptosis, positive control”, the “inhibition of apoptosis induced by tumor necrosis factor and cycloheximide (PI staining)” value (3T3 cells [1]) was “able to inhibit apoptosis”, the “CPP32 enzyme activity (cleavage of DEVD-pNA)” value (CPP32) was “this rise in activity is not seen” and the “inhibition of apoptosis induced by tumor necrosis factor and cycloheximide (TUNEL)” value (3T3 cells [2]) was “able to inhibit apoptosis”.

With “MGKRKGDEVDGVGPP [OL-1, peptide encoded by oligonucleotide OL-1, positive control in Fas selection]” the “inhibition of Fas-mediated apoptosis” value (Jurkat EcoR cells) was “inhibit” and the “inhibition of Staurosporin induced apoptosis” value (cells) was “inhibit”.

With GKQKTKTIKGPP the “translocation of PKCa to the nucleus” value (PKCa) was “able to specifically inhibit translocation of activated PKCa”.

Source: patent US6737241B2, “Methods for screening for transdominant intracellular effector peptides and RNA molecules” (Rigel Pharmaceuticals, Inc., priority 1996, dated 2004)
